Measured values published in PubChem BioAssay AID252 (DTP/NCI, 2004).
“And” between values parts separate entries of the source, which are not always exact repeats. Identical values can stand only once. Inconclusive results and toxic doses are left out.

Test system: BDF1 mice, intracerebral L1210 leukemia, survival T/C
Test: NCI In Vivo Anticancer Drug Screen. Data for tumor model L1210 Leukemia (intracerebral) in B6D2F1 (BDF1) mice
Conditions: higher = longer survival
Outline: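 Readout is the T/C ratio: survival of compound-treated animals over that of vehicle-treated controls, in mice bearing transplantable tumour.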

[1] = endpoint: mean survival time, dose: 167.0 mg/kg/injection, schedule: Q01DX001 (ip), vehicle: carboxymethylcellulose (CMC)

For COC12C(COC(N)=O)C3=C(C(=O)C(C)=C(N)C3=O)N1CC1C2N1C (stereo unspecified), the T/C (endpoint: mean survival time, dose: 11.0 mg/kg/injection, schedule: Q01DX001 (ip), vehicle: carboxymethylcellulose (CMC)) was 92 % of control, the T/C (endpoint: mean survival time, dose: 17.0 mg/kg/injection, schedule: Q01DX001 (ip), vehicle: carboxymethylcellulose (CMC)) was 98 % of control and the T/C (endpoint: mean survival time, dose: 26.0 mg/kg/injection, schedule: Q01DX001 (ip), vehicle: carboxymethylcellulose (CMC)) was 97 % of control.
In the case of O=NN(CCCl)C(=O)Nc1cccc(C(=O)O)c1, the T/C (endpoint: mean survival time, dose: 8.0 mg/kg/injection, schedule: Q01DX001 (ip), vehicle: carboxymethylcellulose (CMC)) is reported as 95 % of control, the T/C (endpoint: mean survival time, dose: 12.0 mg/kg/injection, schedule: Q01DX001 (ip), vehicle: carboxymethylcellulose (CMC)) is reported as 108 % of control and the T/C (endpoint: mean survival time, dose: 18.0 mg/kg/injection, schedule: Q01DX001 (ip), vehicle: carboxymethylcellulose (CMC)) is reported as 106 % of control.
For CCCCCCCCCCCCCCCC(=O)OCC1OC(n2ccc(N)nc2=O)C(O)C1O (stereo unspecified), the T/C (endpoint: mean survival time, dose: 5.0 mg/kg/injection, schedule: Q01DX005 (ip), vehicle: other) was 111 % of control (2×) and 117 % of control, the T/C (endpoint: mean survival time, dose: 20.0 mg/kg/injection, schedule: Q01DX005 (ip), vehicle: other) was 154 % of control and 177 % of control and 180 % of control and the T/C (endpoint: mean survival time, dose: 25.0 mg/kg/injection, schedule: Q01DX001 (ip), vehicle: other) was 110 % of control and 112 % of control and 116 % of control. The T/C (endpoint: mean survival time, dose: 25.0 mg/kg/injection, schedule: Q01DX005 (ip), vehicle: other) was 171 % of control and 192 % of control and 202 % of control, the T/C (endpoint: mean survival time, dose: 30.0 mg/kg/injection, schedule: Q01DX005 (ip), vehicle: other) was 169 % of control and 204 % of control and 242 % of control and the T/C (endpoint: mean survival time, dose: 35.0 mg/kg/injection, schedule: Q01DX005 (ip), vehicle: other) was 201 % of control and 211 % of control and 214 % of control. For the same compound, the T/C (endpoint: mean survival time, dose: 100.0 mg/kg/injection, schedule: Q01DX001 (ip), vehicle: other) was 166 % of control, the T/C (endpoint: mean survival time, dose: 150.0 mg/kg/injection, schedule: Q01DX001 (ip), vehicle: other) was 173 % of control and 191 % of control and 213 % of control and the T/C (endpoint: mean survival time, dose: 200.0 mg/kg/injection, schedule: Q01DX001 (ip), vehicle: other) was 170 % of control and 216 % of control and 242 % of control. The T/C (endpoint: mean survival time, dose: 250.0 mg/kg/injection, schedule: Q01DX001 (ip), vehicle: other) was 161 % of control and 195 % of control and 222 % of control, the T/C (endpoint: median survival time, dose: 25.0 mg/kg/injection, schedule: Q01DX009 (ip), vehicle: saline with Tween-80) was 295 % of control and the T/C (endpoint: median survival time, dose: 50.0 mg/kg/injection, schedule: Q01DX009 (ip), vehicle: saline with Tween-80) was 106 % of control.
For CN(N=O)C(=O)NC(=O)N(C)N=O, the T/C (endpoint: mean survival time, dose: 27.5 mg/kg/injection, schedule: Q01DX001 (ip), vehicle: carboxymethylcellulose (CMC)) was 107 % of control and the T/C (endpoint: mean survival time, dose: 54.0 mg/kg/injection, schedule: Q01DX001 (ip), vehicle: carboxymethylcellulose (CMC)) was 104 % of control.
With O=C(NO)c1ccncc1 the T/C (endpoint: mean survival time, dose: 100.0 mg/kg/injection, schedule: Q01DX009 (ip), vehicle: water) was 91 % of control, the T/C (endpoint: mean survival time, dose: 200.0 mg/kg/injection, schedule: Q01DX009 (ip), vehicle: water) was 92 % of control and the T/C (endpoint: mean survival time, dose: 400.0 mg/kg/injection, schedule: Q01DX009 (ip), vehicle: water) was 86 % of control. The T/C (endpoint: mean survival time, dose: 600.0 mg/kg/injection, schedule: Q01DX009 (ip), vehicle: water) was 89 % of control.
In the case of CC(=O)OCC1OC(n2cnc3c(=S)nc[nH]c32)C(OC(C)=O)C1OC(C)=O (stereo unspecified), the T/C (endpoint: mean survival time, dose: 25.0 mg/kg/injection, schedule: Q01DX Z (ip), vehicle: carboxymethylcellulose (CMC)) is reported as 112 % of control and 117 % of control, the T/C (endpoint: mean survival time, dose: 100.0 mg/kg/injection, schedule: Q01DX Z (ip), vehicle: carboxymethylcellulose (CMC)) is reported as 157 % of control and the T/C (endpoint: mean survival time, dose: 200.0 mg/kg/injection, schedule: Q01DX Z (ip), vehicle: carboxymethylcellulose (CMC)) is reported as 121 % of control and 87 % of control.
With Nc1ncnc2c1ccn2C1OC(CO)C(O)C1O (stereo unspecified) the T/C (endpoint: mean survival time, dose: 1.2 mg/kg/injection, schedule: Q01DX001 (ip), vehicle: carboxymethylcellulose (CMC)) was 96 % of control, the T/C (endpoint: mean survival time, dose: 1.9 mg/kg/injection, schedule: Q01DX001 (ip), vehicle: carboxymethylcellulose (CMC)) was 97 % of control and the T/C (endpoint: mean survival time, dose: 2.9 mg/kg/injection, schedule: Q01DX001 (ip), vehicle: carboxymethylcellulose (CMC)) was 100 % of control.
For O=NN(CCCl)C(=O)Nc1c[nH]c(=O)[nH]c1=O, the T/C (endpoint: mean survival time, dose: 4.4 mg/kg/injection, schedule: Q01DX001 (ip), vehicle: carboxymethylcellulose (CMC)) was 103 % of control, the T/C (endpoint: mean survival time, dose: 6.7 mg/kg/injection, schedule: Q01DX001 (ip), vehicle: carboxymethylcellulose (CMC)) was 101 % of control and the T/C (endpoint: mean survival time, dose: 10.0 mg/kg/injection, schedule: Q01DX001 (ip), vehicle: carboxymethylcellulose (CMC)) was 102 % of control. For the same compound, the T/C (endpoint: mean survival time, dose: 15.0 mg/kg/injection, schedule: Q01DX001 (ip), vehicle: carboxymethylcellulose (CMC)) was 103 % of control, the T/C (endpoint: mean survival time, dose: 20.0 mg/kg/injection, schedule: Q01DX001 (ip), vehicle: carboxymethylcellulose (CMC)) was 98 % of control and the T/C (endpoint: mean survival time, dose: 30.0 mg/kg/injection, schedule: Q01DX001 (ip), vehicle: carboxymethylcellulose (CMC)) was 107 % of control. The T/C (endpoint: mean survival time, dose: 40.0 mg/kg/injection, schedule: Q01DX001 (ip), vehicle: carboxymethylcellulose (CMC)) was 100 % of control and the T/C (endpoint: mean survival time, dose: 60.0 mg/kg/injection, schedule: Q01DX001 (ip), vehicle: carboxymethylcellulose (CMC)) was 94 % of control.
For O=C1C=CN(C2OC(CO)C(O)C2O)C(=O)C1 (stereo unspecified), the T/C (endpoint: median survival time, dose: 200.0 mg/kg/injection, schedule: Q01DX009 (ip), vehicle: saline) was 150 % of control.
N=c1ccn2c(n1)OC1C(O)C(CO)OC12 (stereo unspecified) was tested, and the T/C (endpoint: mean survival time, dose: 50.0 mg/kg/injection, schedule: Q01DX009 (oral), vehicle: saline) was 220 % of control, the T/C (endpoint: mean survival time, dose: 50.0 mg/kg/injection, schedule: Q08DX009 (ip), vehicle: water) was 175 % of control and the T/C (endpoint: mean survival time, dose: 100.0 mg/kg/injection, schedule: Q01DX009 (oral), vehicle: saline) was 228 % of control. The T/C (endpoint: mean survival time, dose: 100.0 mg/kg/injection, schedule: Q01DX009 (oral), vehicle: water) was 186 % of control, the T/C (endpoint: mean survival time, dose: 100.0 mg/kg/injection, schedule: Q08DX009 (ip), vehicle: water) was 196 % of control and the T/C (endpoint: mean survival time, dose: 200.0 mg/kg/injection, schedule: Q01DX009 (oral), vehicle: saline) was 255 % of control. The T/C (endpoint: mean survival time, dose: 200.0 mg/kg/injection, schedule: Q01DX009 (oral), vehicle: water) was 201 % of control, the T/C (endpoint: mean survival time, dose: 200.0 mg/kg/injection, schedule: Q08DX009 (ip), vehicle: water) was 215 % of control and 258 % of control and the T/C (endpoint: mean survival time, dose: 300.0 mg/kg/injection, schedule: Q08DX009 (ip), vehicle: water) was 232 % of control and 217 % of control. For the same compound, the T/C (endpoint: mean survival time, dose: 400.0 mg/kg/injection, schedule: Q01DX009 (oral), vehicle: saline) was 193 % of control, the T/C (endpoint: mean survival time, dose: 400.0 mg/kg/injection, schedule: Q01DX009 (oral), vehicle: water) was 223 % of control and the T/C (endpoint: mean survival time, dose: 400.0 mg/kg/injection, schedule: Q08DX009 (ip), vehicle: water) was 285 % of control. The T/C (endpoint: median survival time, dose: 65.0 mg/kg/injection, schedule: Q01DX009 (ip), vehicle: water) was 167 % of control, the T/C (endpoint: median survival time, dose: 100.0 mg/kg/injection, schedule: Q01DX009 (ip), vehicle: water) was 196 % of control and the T/C (endpoint: median survival time, dose: 108.0 mg/kg/injection, schedule: Q01DX009 (ip), vehicle: water) was 176 % of control. The T/C (endpoint: median survival time, dose: 200.0 mg/kg/injection, schedule: Q01DX009 (ip), vehicle: water) was 223 % of control and the T/C (endpoint: median survival time, dose: 400.0 mg/kg/injection, schedule: Q01DX009 (ip), vehicle: water) was 354 % of control.
In the case of N=[N+]=CC(=O)OCC(N)C(=O)O (stereo unspecified), the T/C (endpoint: mean survival time, dose: 43.0 mg/kg/injection, schedule: Q01DX001 (ip), vehicle: saline) is reported as 104 % of control and the T/C (endpoint: mean survival time, dose: 66.0 mg/kg/injection, schedule: Q01DX001 (ip), vehicle: saline) is reported as 101 % of control.
CNC(=O)N(C)N=O was tested, and the T/C (endpoint: mean survival time, dose: 112.0 mg/kg/injection, schedule: Q01DX001 (ip), vehicle: carboxymethylcellulose (CMC)) was 115 % of control, the T/C [1] was 113 % of control and the T/C (endpoint: mean survival time, dose: 225.0 mg/kg/injection, schedule: Q01DX001 (ip), vehicle: carboxymethylcellulose (CMC)) was 161 % of control. The T/C (endpoint: mean survival time, dose: 375.0 mg/kg/injection, schedule: Q01DX001 (ip), vehicle: carboxymethylcellulose (CMC)) was 112 % of control.
With CCOC(=O)c1ccc(NC(=O)N(C)N=O)cc1 the T/C (endpoint: mean survival time, dose: 75.0 mg/kg/injection, schedule: Q01DX001 (ip), vehicle: carboxymethylcellulose (CMC)) was 94 % of control, the T/C (endpoint: mean survival time, dose: 150.0 mg/kg/injection, schedule: Q01DX001 (ip), vehicle: carboxymethylcellulose (CMC)) was 102 % of control and the T/C (endpoint: mean survival time, dose: 300.0 mg/kg/injection, schedule: Q01DX001 (ip), vehicle: carboxymethylcellulose (CMC)) was 97 % of control.
For c1nc(SSc2ncnc3nc[nH]c23)c2[nH]cnc2n1, the T/C (endpoint: mean survival time, dose: 75.0 mg/kg/injection, schedule: Q04DX003 (ip), vehicle: Klucel (hydroxypropylcellulose) (HPC)) was 108 % of control.
For Nc1nncs1, the T/C (endpoint: mean survival time, dose: 135.0 mg/kg/injection, schedule: Q01DX009 (ip), vehicle: saline) was 101 % of control, the T/C (endpoint: median survival time, dose: 64.0 mg/kg/injection, schedule: Q01DX005 (ip), vehicle: saline with Tween-80) was 120 % of control and the T/C (endpoint: median survival time, dose: 512.0 mg/kg/injection, schedule: Q01DX005 (ip), vehicle: saline with Tween-80) was 100 % of control.
For N#CCCNC(=O)N(CCC#N)N=O, the T/C [1] was 102 % of control and the T/C (endpoint: mean survival time, dose: 250.0 mg/kg/injection, schedule: Q01DX001 (ip), vehicle: carboxymethylcellulose (CMC)) was 109 % of control.
